Measured values reported in ChEMBL document CHEMBL1148388, “Restriction of a peptide turn conformation and conformational analysis of guanidino group using arginine-proline fused amino acids: application to mini atrial natriuretic peptide on binding to the receptor” (J Med Chem, 2004).
Numbered stars: 1 amine (or outer) side, 2 acyl side, 3 side chain; on linkers, the order of the positions; unused ones are H or OH. Bridge positions count the residues as written; N and C are the ends. Square brackets hold non-standard residues; d marks the D form. Peptide text beside a SMILES is read from it. X2 = NC(N)=NCC[C@@H]1C[C@@H](C(=O)[*:2])N([*:1])C1; X1 = NC(N)=NCC[C@H]1C[C@@H](C(=O)[*:2])N([*:1])C1

Assays:
[1] = Relative biological activity was measured as EC50 analogue/ EC50 miniANP; assay type: functional
[2] = Effective concentration required for production of cGMP in Chinese hamster ovary cells expressing natriuretic peptide receptor A (NPR-A); assay type: functional, cell-based

In the case of `CC[C@H](C)[C@@H]1NC(=O)[C@@H](CCCN=C(N)N)NC(=O)[C@H](CC(=O)O)NC(=O)[C@@H](CCSC)NC(=O)[C@H](C)NC(=O)CNC(=O)CNC(=O)[C@@H](Cc2ccccc2)NC(=O)[C@H](Cc2c[nH]cn2)NC(=O)[C@@H](NC(=O)[C@@H](N)CCSC)CSSC[C@H](C(=O)N[C@@H](Cc2ccc(O)cc2)C(=O)N[C@@H](CCCN=C(N)N)C(N)=O)NC(=O)[C@@H](CO)NC1=O`, the Ratio [1] is reported as 44.3.
In the case of `CC[C@H](C)[C@@H]1NC(=O)[C@H](CCCN=C(N)N)NC(=O)[C@H](CC(=O)O)NC(=O)[C@H](CCSC)NC(=O)[C@@H]2C[C@H](CCN=C(N)N)CN2C(=O)CNC(=O)CNC(=O)[C@H](Cc2ccccc2)NC(=O)[C@H](Cc2c[nH]cn2)NC(=O)[C@@H](NC(=O)[C@@H](N)CCSC)CSSC[C@@H](C(=O)N[C@@H](Cc2ccc(O)cc2)C(=O)N[C@@H](CCCN=C(N)N)C(N)=O)NC(=O)[C@H](CO)NC1=O` (H-MCHFGG[X1]MDRISCYR-NH2; disulfide 2-13), the EC50 [2] is reported as 4.6 nM.
Work on `CC[C@H](C)[C@@H]1NC(=O)[C@@H](CCCN=C(N)N)NC(=O)[C@H](CC(=O)O)NC(=O)[C@@H](CCSC)NC(=O)[C@@H]2CCCN2C(=O)CNC(=O)CNC(=O)[C@@H](Cc2ccccc2)NC(=O)[C@H](Cc2c[nH]cn2)NC(=O)[C@@H](NC(=O)[C@@H](N)CCSC)CSSC[C@H](C(=O)N[C@@H](Cc2ccc(O)cc2)C(=O)N[C@@H](CCCN=C(N)N)C(N)=O)NC(=O)[C@@H](CO)NC1=O` yielded a Ratio [1] of 18.7.
Work on `CC[C@H](C)[C@@H]1NC(=O)[C@H](CCCN=C(N)N)NC(=O)[C@H](CC(=O)O)NC(=O)[C@H](CCSC)NC(=O)[C@H](C)NC(=O)CNC(=O)CNC(=O)[C@H](Cc2ccccc2)NC(=O)[C@H](Cc2c[nH]cn2)NC(=O)[C@@H](NC(=O)[C@@H](N)CCSC)CSSC[C@@H](C(=O)N[C@@H](Cc2ccc(O)cc2)C(=O)N[C@@H](CCCN=C(N)N)C(N)=O)NC(=O)[C@H](CO)NC1=O` yielded an EC50 [2] of 137 nM.
In the case of `CC[C@H](C)[C@@H]1NC(=O)[C@H](CCCN=C(N)N)NC(=O)[C@H](CC(=O)O)NC(=O)[C@H](CCSC)NC(=O)[C@@H]2C[C@@H](CCN=C(N)N)CN2C(=O)CNC(=O)CNC(=O)[C@H](Cc2ccccc2)NC(=O)[C@H](Cc2c[nH]cn2)NC(=O)[C@@H](NC(=O)[C@@H](N)CCSC)CSSC[C@@H](C(=O)N[C@@H](Cc2ccc(O)cc2)C(=O)N[C@@H](CCCN=C(N)N)C(N)=O)NC(=O)[C@H](CO)NC1=O` (H-MCHFGG[X2]MDRISCYR-NH2; disulfide 2-13), the EC50 [2] is reported as 1.3 nM.
Work on `CC[C@H](C)[C@@H]1NC(=O)[C@@H](CCCN=C(N)N)NC(=O)[C@H](CC(=O)O)NC(=O)[C@@H](CCSC)NC(=O)[C@H](CCCN=C(N)N)NC(=O)CNC(=O)CNC(=O)[C@@H](Cc2ccccc2)NC(=O)[C@H](Cc2c[nH]cn2)NC(=O)[C@@H](NC(=O)[C@@H](N)CCSC)CSSC[C@H](C(=O)N[C@@H](Cc2ccc(O)cc2)C(=O)N[C@@H](CCCN=C(N)N)C(N)=O)NC(=O)[C@@H](CO)NC1=O` [MiniANP] yielded a Ratio [1] of 1.
Molecule `CC[C@H](C)[C@@H]1NC(=O)[C@H](CCCN=C(N)N)NC(=O)[C@H](CC(=O)O)NC(=O)[C@H](CCSC)NC(=O)[C@@H]2CCCN2C(=O)CNC(=O)CNC(=O)[C@H](Cc2ccccc2)NC(=O)[C@H](Cc2c[nH]cn2)NC(=O)[C@@H](NC(=O)[C@@H](N)CCSC)CSSC[C@@H](C(=O)N[C@@H](Cc2ccc(O)cc2)C(=O)N[C@@H](CCCN=C(N)N)C(N)=O)NC(=O)[C@H](CO)NC1=O` has an EC50 [2] of 58.1 nM.
